For 33 molecules, IC50 results are on record in patent publication US11839613B2, “Pyrimidine derivatives as PGE2 receptor modulators” (IDORSIA PHARMACEUTICALS LTD, priority 2017, dated 2023).

In one assay the target is EP2 (Homo sapiens (Human), UniProt P43116). The experiment in a line: hEP2 cAMP assay (SF295 glioblastoma cells, HTRF cAMP). In kind it is cell-based. To be noted: antagonistic activity. Summed up: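 PGE2-driven cAMP accumulation was measured by HTRF in SF295 cells, which express endogenous EP2 only. Cells in assay buffer with 2 mM IBMX were pre-incubated 45 min at RT, then incubated 30 min at RT. Detection used competition between cellular cAMP and d2-cAMP for a cryptate anti-cAMP antibody.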
Chain of EP2 (P43116 whole entry): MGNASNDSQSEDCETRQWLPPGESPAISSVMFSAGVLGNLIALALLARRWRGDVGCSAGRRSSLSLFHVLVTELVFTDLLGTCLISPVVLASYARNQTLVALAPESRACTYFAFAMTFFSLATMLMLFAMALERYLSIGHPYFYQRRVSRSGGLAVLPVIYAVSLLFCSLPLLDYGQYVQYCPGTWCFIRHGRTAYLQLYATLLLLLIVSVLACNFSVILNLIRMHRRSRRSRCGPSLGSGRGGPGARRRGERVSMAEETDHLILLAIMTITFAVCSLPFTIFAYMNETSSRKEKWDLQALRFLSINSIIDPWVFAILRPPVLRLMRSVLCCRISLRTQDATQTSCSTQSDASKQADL

A further assay concerns the target EP4 (Homo sapiens (Human), UniProt P35408). The experiment in a line: hEP4 cAMP assay (BT549 breast cancer cells, HTRF cAMP). It is filed as cell-based. To be noted: antagonistic activity, PGE2 6 nM. Summed up:
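BT549 breast cancer cells (endogenous EP4) in HBSS/20 mM HEPES/0.2% BSA/2 mM IBMX preincubated 45 min at RT with compound, then stimulated 30 min at RT with 6 nM PGE2 (final). cAMP read by competitive HTRF immunoassay, signal inversely proportional to cAMP.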
For orientation: Changes in cAMP serve as a functional read-out for many G protein-coupled receptors.

For another assay, the target named is PTGER4 (EP4) (Homo sapiens (Human), UniProt P35408). The experiment in a line: cell-based.
Chain of PTGER4 (EP4) (P35408 whole entry): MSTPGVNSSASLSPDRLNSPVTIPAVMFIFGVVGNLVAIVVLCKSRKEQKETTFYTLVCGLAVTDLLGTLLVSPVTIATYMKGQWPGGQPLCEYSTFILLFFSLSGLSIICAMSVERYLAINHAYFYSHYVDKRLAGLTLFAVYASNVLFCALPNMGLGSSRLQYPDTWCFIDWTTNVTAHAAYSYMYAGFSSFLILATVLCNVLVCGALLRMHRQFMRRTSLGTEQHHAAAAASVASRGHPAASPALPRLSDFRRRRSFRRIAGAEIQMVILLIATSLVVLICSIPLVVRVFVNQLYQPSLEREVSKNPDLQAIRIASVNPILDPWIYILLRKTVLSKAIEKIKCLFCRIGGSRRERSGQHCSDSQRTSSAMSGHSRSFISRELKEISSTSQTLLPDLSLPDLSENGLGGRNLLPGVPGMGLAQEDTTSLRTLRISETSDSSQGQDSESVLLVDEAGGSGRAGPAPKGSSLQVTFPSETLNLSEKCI

Chain of EP4 (P35408 whole entry): as above

Broadly, the IC50 is the concentration needed to halve the response being measured. Take `CN1CCCc2cc(CCNc3cc(-c4cc(C(F)(F)F)c(C(=O)O)s4)ncn3)c(F)cc21` [Ex 72, 5-{6-[2-(7-Fluoro-1-methyl-1,2,3,4-tetrahydro-quinolin-6-yl)-ethylamino]-pyrimidin-4-yl}-3-trifluoromethyl-thiophene-2-carboxylic acid]: the IC50 against EP2 was determined as 0.892 µM; at EP4 it was 0.039 µM; on PTGER4 (EP4) it was 0.037 µM.

As to `CCOc1cc(-c2cc(NCCc3ccc4ccn(CC)c4c3)ncn2)sc1C(=O)O` [Ex 242], the IC50 was found to be 0.443 µM on EP2, 0.351 µM at EP4 and 0.495 µM against PTGER4 (EP4).

Consider `CSc1cc(-c2cc(NCCc3cc(C)c4c(c3)OCCO4)ncn2)ccc1C(=O)O` [Ex 292], for which the IC50 against EP2 stood at 0.688 µM; on EP4, 0.538 µM; on PTGER4 (EP4), 1.51 µM.

For the molecule `CCOc1cc(-c2cc(NCCc3ccc4occc4c3)ncn2)ccc1CC(=O)O` [Ex 311, {4-[6-(2-Benzofuran-5-yl-ethylamino)-pyrimidin-4-yl]-2-ethoxy-phenyl}-acetic acid], the results for the 50% inhibitory concentration (IC50) against EP2, at EP4 and against PTGER4 (EP4) were 0.538 µM, 0.685 µM and 0.31 µM, respectively.

For `CCOc1cc(-c2cc(NCCc3cc4cccnc4cc3F)ncn2)sc1C(=N)NO` [Example 347, 3-Ethoxy-5-{6-[2-(7-fluoro-quinolin-6-yl)-ethylamino]-pyrimidin-4-yl}-N-hydroxy-thiophene-2-carboxamidine], the IC50 was 0.495 µM on EP2, 0.172 µM against EP4 and 0.031 µM on PTGER4 (EP4).

Regarding `CCOc1cc(-c2cc(NCCc3ccc4scc(C)c4c3)ncn2)ccc1CC(=O)O` [Ex 297], the half-inhibitory concentration (IC50) on EP2 amounted to 0.782 µM; against EP4, 0.592 µM; against PTGER4 (EP4), 2.12 µM.

As for `CSc1cc(-c2cc(NCCc3cc(F)c4c(c3)OCCO4)ncn2)ccc1C(=O)O` [Ex 216], the IC50 on EP2 was 0.49 µM; against EP4 it was 0.267 µM; on PTGER4 (EP4), 0.307 µM.

As for `CCOc1cc(-c2cc(NCCc3c(F)cc4ncccc4c3F)ncn2)sc1-c1noc(=O)[nH]1` [Example 346, 3-(5-{6-[2-(5,7-Difluoro-quinolin-6-yl)-ethylamino]-pyrimidin-4-yl}-3-ethoxy-thiophen-2-yl)-[1,2,4]oxadiazol-5(4H)-one], the IC50 at EP2 is 0.282 µM; at EP4, 0.11 µM; against PTGER4 (EP4), 0.057 µM.

In the case of `O=C(O)c1ccc(-c2cc(NCCc3ccc4ccsc4c3)ncn2)cc1OC1CCC1` [Ex 147], the results for the IC50 against EP2, at EP4 and against PTGER4 (EP4) were 0.571 µM, 0.141 µM and 0.219 µM, respectively.

As to `CCOc1cc(-c2cc(NCCc3cc4c(cc3OC)CCCC4)ncn2)ccc1OCC(=O)O` [Ex 143], the IC50 at EP2 stood at 0.787 µM; against EP4, 0.128 µM; at PTGER4 (EP4), 0.022 µM.

Consider `CSc1cc(-c2cc(NCCc3ccc4c(c3)CCC4)ncn2)ccc1C(=O)O` [Ex 185, 4-[6-(2-Indan-5-yl-ethylamino)-pyrimidin-4-yl]-2-methylsulfanyl-benzoic acid], for which the figures for the IC50 against EP2, against EP4 and against PTGER4 (EP4) were 0.452 µM, 0.2 µM and 0.258 µM, respectively.

Take `CCOc1cc(-c2cc(NCCc3c(OC)cc4ccccc4c3F)ncn2)sc1C(=O)O` [Ex 3, 3-Ethoxy-5-{6-[2-(1-fluoro-3-methoxy-naphthalen-2-yl)-ethylamino]-pyrimidin-4-yl}-thiophene-2-carboxylic acid]: the results for the IC50 against EP2, at EP4 and against PTGER4 (EP4) were 0.026 µM, 0.002 µM and 0.001 µM, respectively.

For `CCOc1cc(-c2cc(NCCc3ccc4c(c3)OCCC4)ncn2)sc1C(=O)O` [Ex 58, 5-[6-(2-Chroman-7-yl-ethylamino)-pyrimidin-4-yl]-3-ethoxy-thiophene-2-carboxylic acid], the IC50 on EP2 was found to be 9.39 µM; at EP4 it was 0.03 µM; at PTGER4 (EP4), 0.013 µM.

Take `CSc1cc(-c2cc(NCCc3ccc4c(c3)CCCO4)ncn2)ccc1C(=O)O` [Ex 257, 4-[6-(2-Chroman-6-yl-ethylamino)-pyrimidin-4-yl]-2-methylsulfanyl-benzoic acid]: the IC50 against EP2 turned out to be 0.282 µM; at EP4, 0.389 µM; against PTGER4 (EP4) it was 0.417 µM.

`CCOc1cc(-c2cc(NCCc3cc4ccoc4cc3F)ncn2)ccc1CC(=O)O` [Ex 195]: the IC50 against EP2 came out at 0.373 µM; against EP4 it was 0.217 µM; at PTGER4 (EP4), 0.245 µM.

With `CCOc1cc(-c2cc(NCCc3ccc4ccccc4c3C)ncn2)sc1/C=C/C(=O)O` [Ex 130], the IC50 came out at 0.423 µM against EP2, 0.106 µM against EP4 and 0.023 µM at PTGER4 (EP4).

Consider `Fc1cc2ncccc2c(F)c1CCNc1cc(-c2ccc3ncccc3c2)ncn1` [Ex 123, [2-(5,7-Difluoro-quinolin-6-yl)-ethyl]-(6-quinolin-6-yl-pyrimidin-4-yl)-amine], for which the IC50 at EP2 came to 0.588 µM; against EP4, 0.097 µM; on PTGER4 (EP4), 0.353 µM.

Regarding `CCOc1cc(-c2cc(NCCc3ccc4c(ccn4C)c3)ncn2)sc1C(=O)O` [Ex 65, 3-Ethoxy-5-{6-[2-(1-methyl-1H-indol-5-yl)-ethylamino]-pyrimidin-4-yl}-thiophene-2-carboxylic acid], the IC50 on EP2 was 0.304 µM; at EP4 it was 0.035 µM; against PTGER4 (EP4), 0.033 µM.

For the molecule `CCOc1cc(-c2cc(NCCc3ccc4ccccc4c3N)ncn2)sc1C(=O)O` [Ex 71, 5-{6-[2-(1-Amino-naphthalen-2-yl)-ethylamino]-pyrimidin-4-yl}-3-ethoxy-thiophene-2-carboxylic acid], the IC50 at EP2 was determined as 0.301 µM; against EP4 it was 0.039 µM; on PTGER4 (EP4), 0.024 µM.

In the case of `CCOc1cc(-c2cc(NCCc3ccc4c(c3)OCCC4)ncn2)ccc1CC(=O)O` [Ex 332, {4-[6-(2-Chroman-7-yl-ethylamino)-pyrimidin-4-yl]-2-ethoxy-phenyl}-acetic acid], the figures for the IC50 against EP2, against EP4 and against PTGER4 (EP4) were 12.2 µM, 1.51 µM and 0.415 µM, respectively.

Take `CCOc1cc(-c2cc(NCCc3ccc4ccsc4c3)ncn2)ccc1C(=O)O` [Ex 167, 4-[6-(2-Benzo[b]thiophen-6-yl-ethylamino)-pyrimidin-4-yl]-2-ethoxy-benzoic acid]: the IC50 against EP2 amounted to 0.714 µM; at EP4, 0.166 µM; at PTGER4 (EP4) it was 0.361 µM.

As to `Cc1csc2ccc(CCNc3cc(-c4ccc(C(=O)O)c(OC5CCC5)c4)ncn3)cc12` [Ex 306], the IC50 against EP2 was 0.274 µM; at EP4, 0.654 µM; against PTGER4 (EP4) it was 0.61 µM.

`O=C(O)c1ccc(-c2cc(NCCc3ccc4c(c3)CCCO4)ncn2)cc1OC1CCC1` [Ex 266, 4-[6-(2-Chroman-6-yl-ethylamino)-pyrimidin-4-yl]-2-cyclobutoxy-benzoic acid]: the 50% inhibitory concentration (IC50) at EP2 worked out at 0.537 µM; against EP4 it was 0.428 µM; at PTGER4 (EP4) it was 0.444 µM.

As for `CCOc1cc(-c2cc(NCCc3ccc4cc[nH]c4c3)ncn2)ccc1OCC(=O)O` [Ex 194, (2-Ethoxy-4-{6-[2-(1H-indol-6-yl)-ethylamino]-pyrimidin-4-yl}-phenoxy)-acetic acid], the IC50 on EP2 came to 0.295 µM; on EP4, 0.212 µM; at PTGER4 (EP4), 0.325 µM.

As to `CCOc1cc(-c2cc(NCCc3ccc4ccccc4c3F)ncn2)sc1C(=O)O` [Ex 11, 3-Ethoxy-5-{6-[2-(1-fluoro-naphthalen-2-yl)-ethylamino]-pyrimidin-4-yl}-thiophene-2-carboxylic acid], the IC50 at EP2 came out at 0.277 µM; at EP4 it was 0.007 µM; against PTGER4 (EP4), 0.013 µM.

As to `CSc1cc2c(cc1CCNc1cc(-c3ccc(C(=O)O)c(OC4CCC4)c3)ncn1)OCCO2` [Ex 70, 2-Cyclobutoxy-4-{6-[2-(7-methylsulfanyl-2,3-dihydro-benzo[1,4]dioxin-6-yl)-ethylamino]-pyrimidin-4-yl}-benzoic acid], the half-inhibitory concentration (IC50) at EP2 turned out to be 0.441 µM; against EP4, 0.038 µM; against PTGER4 (EP4) it was 0.209 µM.

For the molecule `CCOc1cc(-c2cc(NCCc3ccc4sccc4c3)ncn2)ccc1C(C)C(=O)O` (stereo not drawn) [Ex 161], the IC50 at EP2 was determined as 0.524 µM; against EP4, 0.13 µM; against PTGER4 (EP4) it was 0.199 µM.

Regarding `CSc1cc(-c2cc(NCCc3ccc4[nH]ccc4c3)ncn2)ccc1C(=O)O` [Ex 319], the IC50 against EP2 was 0.354 µM; on EP4, 0.559 µM; on PTGER4 (EP4) it was 1.18 µM.

`CCOc1cc(-c2cc(NCCc3cc4ccccc4cc3Cl)ncn2)sc1C(=O)O` [Ex 62, 5-{6-[2-(3-Chloro-naphthalen-2-yl)-ethylamino]-pyrimidin-4-yl}-3-ethoxy-thiophene-2-carboxylic acid]: the IC50 on EP2 was found to be 0.301 µM; against EP4, 0.032 µM; at PTGER4 (EP4), 0.016 µM.

For the molecule `CCOc1cc(-c2cc(NCCc3cc4ccccc4cc3OC)ncn2)ccc1C(=O)O` [Ex 162], the IC50 on EP2 came to 0.371 µM; against EP4, 0.158 µM; at PTGER4 (EP4), 0.134 µM.

As to `O=C(O)c1ccc(-c2cc(NCCc3ccc4c(c3)CCC4)ncn2)cc1OC1CCC1` [Ex 206, 2-Cyclobutoxy-4-[6-(2-indan-5-yl-ethylamino)-pyrimidin-4-yl]-benzoic acid], the IC50 is 0.572 µM on EP2, 0.248 µM against EP4 and 0.304 µM at PTGER4 (EP4).

With `CCOc1cc(-c2cc(NCCc3ccc4ccccc4c3F)ncn2)ccc1OCC(=O)O` [Ex 136], the figures for the IC50 against EP2, on EP4 and at PTGER4 (EP4) were 0.677 µM, 0.12 µM and 0.029 µM, respectively.

Regarding `CCOc1cc(-c2cc(NCCc3ccc4ccccc4c3)ncn2)sc1-c1noc(=O)[nH]1` [Example 345, 3-{3-Ethoxy-5-[6-(2-naphthalen-2-yl-ethylamino)-pyrimidin-4-yl]-thiophen-2-yl}-[1,2,4]oxadiazol-5(4H)-one], the concentration for half-maximal inhibition (IC50) was 0.683 µM at EP2, 0.03 µM at EP4 and 0.006 µM against PTGER4 (EP4).
